Results taken from patent US20040052750A1, “Compositions for prevention and alleviation of skin wrinkles” (priority 2000, published 2004).
Structures can show the parent of a compound that is named as a salt. Marks after values point to notes of the source that are not given here.

Tests used:
hairless mice [1] = assay: Inhibiting the generation of wrinkles in hairless mice (simulated sunlight); format: in vivo; details: 10 per group
Experimental: 6-week hairless mice were placed into 21 experimental groups and 3 control groups, with 10 rats per group. […] The experimental protocol in detail is as follows. Hairless mice were radiated using simulated sunlight at a dose of 2 MED (double Minimal Erythema Dose) 3 days a week for […], thereby generating wrinkles. Respective active ingredients or the solvent only were applied twice every day (specifically, on radiation days, the application was performed at 30 min before and after the radiation), at a volume of 100 μl each for 10 weeks from the first radiation day. Degrees of inhibition of generated wrinkles were determined. The determination was performed by visual observation with naked eyes and photography.

rat skin = assay: Promotion of collagen production in rat skin (hydroxyproline in implanted PVA sponge); format: in vivo, SD rats; details: 200 μl every day for 10 days, control = 100%
Experimental: In brief, 5-week male SD rats were grouped with 5 rats per group. The rats were each incised 1 cm in the center of their abdomens and PVA sponges (Unipoint ind.) were inserted therein. After suturing, as for experimental groups, respective active ingredients to be examined were applied to the PVA sponge-embeded regions i n a volume o f 200 μl every day for 10 days. Upon autopsy, the PVA sponge was removed to quantify hydroxyproline. The PVA sponge was added with 4 ml of 6 N HCl, hydrolized at 130° C. for 3 hours and was subjected to complete drying. 50 μl of methanol was added and the solution was incubated at 110° C. until HCl was removed. 1.2 ml of 50% isopropanol was added to dissolve the remaining precipitate. 200 μl of chloramine-T (sodium p-toluensulfochloramide trihydrate) solution was added while stirring, and let stand for 10 min. After adding 1.2 ml of Ehrlich reagent and mixing, the solution was incubated at 50° C. for 90 min. The resulting solution was cooled to room temperature and absorbance at 558 nm was measured. Hydroxyproline standard solutions were prepared by dissolving 1 mg hydroxyproline in 1 ml HCl and diluting it to concentrations of 0, 0.2, 0.4, 0.8, 1 mg each relative to 25 μl of 6 N HCl. The standard solutions were hydrolyzed at 130° C. for 3 hours. The quantified value of hydroxyproline, relative to hydroxyproline value (100%) of the control group which was applied with solvent only, are shown in Table 2.

hairless mice [2] = assay: Alleviating photo-induced wrinkles in hairless mice; format: in vivo; details: twice a day for 6 weeks, 10 per group
Experimental: Mice were placed into 21 experimental groups and 3 control groups, with 10 rats per group. […] The experimental protocol is as follows. Hairless mice were radiated using a simulated sunlight at a dose of 2 MED (double Minimal Erythema Dose) 3 days a week for 10 weeks, thereby generating wrinkles. Then, respective active ingredients or the solvent only were applied at a volume of 100 μl each, twice a day for 6 weeks. Degrees of wrinkle reduction were determined. The determination was performed by visually observing the compound-applied region with naked eyes, and the region was photographed. The degrees of alleviation of wrinkles in the compound-treatment groups (experimental groups) were compared with those of the control group and were determined as one of 4 stages, that is, none (Score 0), slight (Score 1), moderate (Score 2) and high (Score 3), and the corresponding mice were counted.

[3] = test system: fibroblasts derived from a human; assay: Promoting collagen production in fibroblasts (3H-proline incorporation into collagenase-sensitive protein); format: cell-based; details: control = 100%
Experimental: The experimental protocol in detail is as follows.
Human-derived fibroblasts were transferred to a 24 well plate and cultured in a medium containing 10% fetal bovine serum (FBS) for 24 hours, followed by washing twice with phosphate buffered saline. […] After the incubation was terminated, cells from each group were harvested and two fractions of each culture were prepared. One fraction from each culture was treated with collagenase. To all fractions was added trichloroacetic acid to precipitate proteins. The amount of radioactivity incorporated into collagenase-sensitive protein was measured and compared with that of the other fraction which was not treated with collagenase. The difference in radioactivity was attributed to the promoting effect of the compound.

Row | SMILES | Inhibition of wrinkles, Score 0 (none) (hairless mice [1]; 10^-3 M) | Inhibition of wrinkles, Score 1 (slight) (hairless mice [1]; 10^-3 M) | Inhibition of wrinkles, Score 2 (moderate) (hairless mice [1]; 10^-3 M) | Inhibition of wrinkles, Score 3 (high) (hairless mice [1]; 10^-3 M) | Inhibition of wrinkles, Score 0 (none) (hairless mice [1]; 10^-5 M) | Inhibition of wrinkles, Score 1 (slight) (hairless mice [1]; 10^-5 M) | Inhibition of wrinkles, Score 2 (moderate) (hairless mice [1]; 10^-5 M) | Inhibition of wrinkles, Score 3 (high) (hairless mice [1]; 10^-5 M) | Inhibition of wrinkles, Score 0 (none) (hairless mice [1]; 10^-8 M) | Inhibition of wrinkles, Score 1 (slight) (hairless mice [1]; 10^-8 M) | Inhibition of wrinkles, Score 2 (moderate) (hairless mice [1]; 10^-8 M) | Inhibition of wrinkles, Score 3 (high) (hairless mice [1]; 10^-8 M) | Effect of promoting collagen production in animal skin (hydroxyproline value vs control) (rat skin; 10^-5 M) [%] | Effect of promoting collagen production in animal skin (hydroxyproline value vs control) (rat skin; 10^-6 M) [%] | Effect of promoting collagen production in animal skin (hydroxyproline value vs control) (rat skin; 10^-7 M) [%] | Effect of promoting collagen production in animal skin (hydroxyproline value vs control) (rat skin; 10^-8 M) | Reduction of wrinkles, Score 0 (none) (hairless mice [2]; 10^-3 M) | Reduction of wrinkles, Score 1 (slight) (hairless mice [2]; 10^-3 M) | Reduction of wrinkles, Score 2 (moderate) (hairless mice [2]; 10^-3 M) | Reduction of wrinkles, Score 3 (high) (hairless mice [2]; 10^-3 M) | also measured
1 | COc1ccc(CCN(C)CCCC(C#N)(c2ccc(OC)c(OC)c2)C(C)C)cc1OC (stereo not shown) [Verapamil HCl] | 0 number of mice | 0 number of mice | 1 number of mice | 9 number of mice | 0 number of mice | 1 number of mice | 2 number of mice | 7 number of mice | 0 number of mice | 1 number of mice | 1 number of mice | 8 number of mice | 183.32 | 167.06 | 147.39 | 135.63% | 0 number of mice | 1 number of mice | 2 number of mice | 7 number of mice | Reduction of wrinkles, Score 0 (none) (hairless mice [2]; 10^-5 M): 0 number of mice; Reduction of wrinkles, Score 1 (slight) (hairless mice [2]; 10^-5 M): 2 number of mice; Reduction of wrinkles, Score 2 (moderate) (hairless mice [2]; 10^-5 M): 1 number of mice; Reduction of wrinkles, Score 3 (high) (hairless mice [2]; 10^-5 M): 7 number of mice; Reduction of wrinkles, Score 0 (none) (hairless mice [2]; 10^-8 M): 0 number of mice; Reduction of wrinkles, Score 1 (slight) (hairless mice [2]; 10^-8 M): 2 number of mice; Reduction of wrinkles, Score 2 (moderate) (hairless mice [2]; 10^-8 M): 2 number of mice; Reduction of wrinkles, Score 3 (high) (hairless mice [2]; 10^-8 M): 6 number of mice; Effect of promoting collagen production in fibroblasts (rate of collagen production) ([3]; 10^-5 M): 355.12%; Effect of promoting collagen production in fibroblasts (rate of collagen production) ([3]; 10^-6 M): 331.09%; Effect of promoting collagen production in fibroblasts (rate of collagen production) ([3]; 10^-7 M): 280.23%; Effect of promoting collagen production in fibroblasts (rate of collagen production) ([3]; 10^-8 M): 183.25%
2 | O=C1NC(=O)C(c2ccccc2)(c2ccccc2)N1 [Phenytoin] | 0 number of mice | 0 number of mice | 3 number of mice | 7 number of mice | 0 number of mice | 0 number of mice | 3 number of mice | 7 number of mice | 0 number of mice | 0 number of mice | 2 number of mice | 8 number of mice | 182.47 | 167.41 | 143.51 | 132.58* % | 0 number of mice | 0 number of mice | 3 number of mice | 7 number of mice | Reduction of wrinkles, Score 0 (none) (hairless mice [2]; 10^-5 M): 0 number of mice; Reduction of wrinkles, Score 1 (slight) (hairless mice [2]; 10^-5 M): 1 number of mice; Reduction of wrinkles, Score 2 (moderate) (hairless mice [2]; 10^-5 M): 3 number of mice; Reduction of wrinkles, Score 3 (high) (hairless mice [2]; 10^-5 M): 6 number of mice; Reduction of wrinkles, Score 0 (none) (hairless mice [2]; 10^-8 M): 0 number of mice; Reduction of wrinkles, Score 1 (slight) (hairless mice [2]; 10^-8 M): 1 number of mice; Reduction of wrinkles, Score 2 (moderate) (hairless mice [2]; 10^-8 M): 2 number of mice; Reduction of wrinkles, Score 3 (high) (hairless mice [2]; 10^-8 M): 7 number of mice; Effect of promoting collagen production in fibroblasts (rate of collagen production) ([3]; 10^-5 M): 381.54%; Effect of promoting collagen production in fibroblasts (rate of collagen production) ([3]; 10^-6 M): 360.65%; Effect of promoting collagen production in fibroblasts (rate of collagen production) ([3]; 10^-7 M): 298.35%; Effect of promoting collagen production in fibroblasts (rate of collagen production) ([3]; 10^-8 M): 215.28* %
